Results published in US9328083B2, “2-aminated methylene or 2-esterified methylene tanshinone derivatives, and preparation method and application thereof” (HANGZHOU BENSHENG PHARMACEUTICAL CO., LTD., priority 2011, dated 2016).
Values after ≈ are worked out from the molar mass of the structure shown.

What was measured:
[1] = system: H9 (acute lymphoblastic leukemia, ALL); test: MTT growth inhibition of leukemia cells, 72 h; assay type: cell-based, human; conditions: Homo sapiens, H9, 72 h; for IC50: read-out: IC50; for IC90: read-out: IC90
Procedure, shortened: (§1)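 Seed 6000 cells per well in serum-supplemented RPMI-1640 (10% FBS); next day add derivatives at several concentrations, diluted from a 10 mg/mL DMSO stock; incubate 72 h at 37 °C, 5% CO2; quantify surviving cells with MTT.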

[2] = system: Jurkat (acute lymphoblastic leukemia, ALL); test: MTT growth inhibition of leukemia cells, 72 h; assay type: cell-based, human; conditions: Homo sapiens, 72 h; for IC50: read-out: IC50; for IC90: read-out: IC90
Procedure, shortened: as §1

[3] = system: K562/adr (drug-resistant, chronic myeloid leukemia, CML); test: MTT growth inhibition of leukemia cells, 72 h; assay type: cell-based, human; conditions: Homo sapiens, K562/Adr; for IC50: read-out: IC50; for IC90: read-out: IC90
Procedure, shortened: as §1

[4] = system: Kasumi-1 (acute myeloid leukemia M2 type, AML-M2); test: MTT growth inhibition of leukemia cells, 72 h; assay type: cell-based, human; conditions: Homo sapiens, Kasumi-1, 72 h; for IC50: read-out: IC50; for IC90: read-out: IC90
Procedure, shortened: as §1

[5] = system: NB4 (acute promyelocytic leukemia, AML); test: MTT growth inhibition of leukemia cells, 72 h; assay type: cell-based, human; conditions: Homo sapiens, NB4, 72 h; for IC50: read-out: IC50; for IC90: read-out: IC90
Procedure, shortened: as §1

[6] = system: RPMI8226 (multiple myeloma); test: MTT growth inhibition of multiple myeloma cells, 72 h; assay type: cell-based, human; conditions: Homo sapiens, RPMI 8226, 72 h; for IC50: read-out: IC50; for IC90: read-out: IC90
Procedure, shortened: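 Viability read by MTT after 72 h at 37° C, 5% CO2: compounds from a 10 mg/mL DMSO stock were diluted in medium and added at several concentrations to 6000 RPMI8226 cells per well in 1640 medium plus 10% FBS.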

A549 (human lung cancer) = test: MTT growth inhibition of human solid tumor cells, 72 h; assay type: cell-based; conditions: Homo sapiens, A549, 72 h; for IC50: read-out: IC50; for IC90: read-out: IC90
Procedure, shortened: (§2)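 Growth medium: DMEM High Glucose, 10% FBS. Seeding density 4000 cells per well, preincubated one day at 37° C/5% CO2 before dosing with derivatives over a concentration range.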

[7] = system: Becap37 (human breast cancer cell); test: as above; assay type: cell-based; conditions: Homo sapiens, Becap-37, 72 h; for IC50: read-out: IC50; for IC90: read-out: IC90
Procedure, shortened: as §2

[8] = system: CNE (nasopharyngeal carcinoma cell); test: as above; assay type: cell-based; conditions: Homo sapiens; for IC50: read-out: IC50; for IC90: read-out: IC90
Procedure, shortened: as §2

[9] = system: CaES-17 (esophageal cancer cell); test: as above; assay type: cell-based; conditions: Homo sapiens, CaEs17, CaEs-17, 72 h; for IC50: read-out: IC50; for IC90: read-out: IC90
Procedure, shortened: as §2

[10] = system: Hela (human cervical cancer cell); test: as above; assay type: cell-based; conditions: Homo sapiens, HeLa, 72 h; for IC50: read-out: IC50; for IC90: read-out: IC90
Procedure, shortened: as §2

[11] = system: Hep G2 (human liver cancer cell); test: as above; assay type: cell-based; conditions: Homo sapiens, HepG2, Hep G2, 72 h; for IC50: read-out: IC50; for IC90: read-out: IC90
Procedure, shortened: as §2

[12] = system: Hep-2 (laryngeal carcinoma); test: as above; assay type: cell-based; conditions: Homo sapiens, HEp-2, 72 h; for IC50: read-out: IC50; for IC90: read-out: IC90
Procedure, shortened: as §2

MG63 (osteosarcoma) = test: as above; assay type: cell-based; conditions: Homo sapiens, MG-63, 72 h; for IC50: read-out: IC50; for IC90: read-out: IC90
Procedure, shortened: as §2

[13] = system: MGC 803 (human gastric cancer cell); test: as above; assay type: cell-based; conditions: Homo sapiens, MGC-803, 72 h; for IC50: read-out: IC50; for IC90: read-out: IC90
Procedure, shortened: as §2

[14] = system: PANC-1 (pancreatic cancer); test: as above; assay type: cell-based; conditions: Homo sapiens, PANC-1, 72 h; for IC50: read-out: IC50; for IC90: read-out: IC90
Procedure, shortened: as §2

PC-3 (prostate cancer) = test: as above; assay type: cell-based; conditions: Homo sapiens, PC-3, 72 h; for IC50: read-out: IC50; for IC90: read-out: IC90
Procedure, shortened: as §2

[15] = system: RKO (human colon adenocarcinoma cell); test: as above; assay type: cell-based; conditions: Homo sapiens; for IC50: read-out: IC50; for IC90: read-out: IC90
Procedure, shortened: as §2

[16] = system: SK-OV-3 (ovarian cancer cell); test: as above; assay type: cell-based; conditions: Homo sapiens, SK-OV-3, 72 h; for IC50: read-out: IC50; for IC90: read-out: IC90
Procedure, shortened: as §2

[17] = system: U87 MG (malignant glioma cell); test: as above; assay type: cell-based; conditions: Homo sapiens, U-87 MG, U87-MG, 72 h; for IC50: read-out: IC50; for IC90: read-out: IC90
Procedure, shortened: as §2

| SMILES | IC50 [1] [µg/mL] | IC90 [1] [µg/mL] | IC50 [2] [µg/mL] | IC90 [2] [µg/mL] | IC50 [3] [µg/mL] | IC90 [3] [µg/mL] | IC50 [4] [µg/mL] | IC90 [4] [µg/mL] | IC50 [5] [µg/mL] | IC90 [5] [µg/mL] | IC50 [6] [µg/mL] | IC90 [6] [µg/mL] | IC50 (A549 (human lung cancer)) [µg/mL] | IC90 (A549 (human lung cancer)) [µg/mL] | IC50 [7] [µg/mL] | IC90 [7] [µg/mL] | IC50 [8] [µg/mL] | IC90 [8] [µg/mL] | IC50 [9] [µg/mL] | IC90 [9] [µg/mL] | further results |
| --- | --- | --- | --- | --- | --- | --- | --- | --- | --- | --- | --- | --- | --- | --- | --- | --- | --- | --- | --- | --- | --- |
| Cc1c(COC(=O)c2ccnc(Cl)c2)oc2c1C(=O)C(=O)c1c-2ccc2c(C)cccc12 [BS-TA-A01] | 3.09 (≈ 6.93 µM) | 10.4 (≈ 23.2 µM) | 3 (≈ 6.73 µM) | 9.27 (≈ 20.8 µM) | 2.33 (≈ 5.23 µM) | 6.24 (≈ 14 µM) | 1.75 (≈ 3.93 µM) | 3.91 (≈ 8.77 µM) | 0.99 (≈ 2.22 µM) | 3.97 (≈ 8.9 µM) | 3.39 (≈ 7.6 µM) | 7.85 (≈ 17.6 µM) | 6.23 (≈ 14 µM) | > 16 | 4.74 (≈ 10.6 µM) | 10.8 (≈ 24.1 µM) | 4.1 (≈ 9.2 µM) | 45 (≈ 101 µM) | 6.36 (≈ 14.3 µM) | 12.7 (≈ 28.4 µM) | IC50 [10]: 4.5 µg/mL (≈ 10.1 µM); IC90 [10]: 14.9 µg/mL (≈ 33.3 µM); IC50 [11]: 4.82 µg/mL (≈ 10.8 µM); IC90 [11]: 16 µg/mL (≈ 35.9 µM); IC50 [12]: 3.96 µg/mL (≈ 8.88 µM); IC90 [12]: 19.1 µg/mL (≈ 42.9 µM); IC50 (MG63 (osteosarcoma)): 2.87 µg/mL (≈ 6.44 µM); IC90 (MG63 (osteosarcoma)): 14 µg/mL (≈ 31.4 µM); IC50 [13]: 5.38 µg/mL (≈ 12.1 µM); IC90 [13]: 16 µg/mL (≈ 35.9 µM); IC50 [14]: 3.31 µg/mL (≈ 7.42 µM); IC90 [14]: 12 µg/mL (≈ 27 µM); IC50 (PC-3 (prostate cancer)): 5.32 µg/mL (≈ 11.9 µM); IC90 (PC-3 (prostate cancer)): 12.6 µg/mL (≈ 28.2 µM); IC50 [15]: 1.46 µg/mL (≈ 3.27 µM); IC90 [15]: 13.4 µg/mL (≈ 30.1 µM); IC50 [16]: > 16 µg/mL; IC90 [16]: > 16 µg/mL; IC50 [17]: 5.71 µg/mL (≈ 12.8 µM); IC90 [17]: 14.2 µg/mL (≈ 31.7 µM) |
| C#CCNCc1oc2c(c1C)C(=O)C(=O)c1c-2ccc2c(C)cccc12 [BS-TA-B21] | 2.2 (≈ 6.41 µM) | 5.9 (≈ 17.2 µM) | 3.41 (≈ 9.93 µM) | 9.55 (≈ 27.8 µM) | 1.3 (≈ 3.79 µM) | 2.73 (≈ 7.95 µM) | 0.83 (≈ 2.42 µM) | 1.8 (≈ 5.24 µM) | 1.53 (≈ 4.46 µM) | 5.46 (≈ 15.9 µM) | 5.78 (≈ 16.8 µM) | 10.5 (≈ 30.5 µM) | 1.8 (≈ 5.24 µM) | 10 (≈ 29.1 µM) | 6.73 (≈ 19.6 µM) | 15.1 (≈ 43.9 µM) | 5.99 (≈ 17.4 µM) | 79 (≈ 230 µM) | 8.71 (≈ 25.4 µM) | 14.2 (≈ 41.5 µM) | IC50 [10]: 3.3 µg/mL (≈ 9.61 µM); IC90 [10]: 7.9 µg/mL (≈ 23 µM); IC50 [11]: 7.3 µg/mL (≈ 21.3 µM); IC90 [11]: 25.8 µg/mL (≈ 75 µM); IC50 [12]: 5.16 µg/mL (≈ 15 µM); IC90 [12]: 23.7 µg/mL (≈ 69 µM); IC50 (MG63 (osteosarcoma)): 4.68 µg/mL (≈ 13.6 µM); IC90 (MG63 (osteosarcoma)): 15.3 µg/mL (≈ 44.6 µM); IC50 [13]: 7.01 µg/mL (≈ 20.4 µM); IC90 [13]: 17.3 µg/mL (≈ 50.4 µM); IC50 [14]: 1.14 µg/mL (≈ 3.32 µM); IC90 [14]: 7.28 µg/mL (≈ 21.2 µM); IC50 (PC-3 (prostate cancer)): 7.3 µg/mL (≈ 21.3 µM); IC90 (PC-3 (prostate cancer)): 15.1 µg/mL (≈ 44 µM); IC50 [15]: 2.46 µg/mL (≈ 7.16 µM); IC90 [15]: 27.9 µg/mL (≈ 81.1 µM); IC50 [16]: > 16 µg/mL; IC90 [16]: > 16 µg/mL; IC50 [17]: 6.79 µg/mL (≈ 19.8 µM); IC90 [17]: 21.3 µg/mL (≈ 62.1 µM) |
